Patent US11891642B2, “Biocatalytic techniques” (HYPHA DISCOVERY LIMITED, priority 2018, dated 2024)

Assays:
[1] = tested on: S. lividans HD000 negative control; experiment: Whole-cell biotransformation of ritonavir in 24-well block format, empty-vector strain; format: cell-based, Streptomyces lividans; conditions: for +16 Da (1.67 min) / +16 Da (1.72 min) / +16 Da (1.76 min) / Parent (1.90 min): ritonavir 100 mg/L
Experimental: As a negative control, an empty plJ12551 expression vector was introduced into S. lividans TK24 by triparental conjugation as described above and designated as S. lividans […].
(§1) Approximately 10^8 cells of S. lividans HD000 and S. lividans […] inoculated separately into 50 mL of culture medium (containing 5 g/L glycerol; 20 g/L glucose; 5 g/L yeast extract peptone; 2 g/L meat extract; 5 g/L mycological peptone; 1 g/L ammonium phosphate dibasic; 3 g/I sodium chloride; 0.3 g/L magnesium sulphate heptahydrate and 3.5 g/L calcium carbonate, adjusted to pH 7.0 and sterilised at 115° C. for 15 minutes) in 250 mL baffled flasks and incubated shaking at 27° C., 200 rpm for 48 hours. In a 24-well micro-bioreactor block (EnzyScreen, Netherlands), 2.5 mL of S. lividans HD000 and S. lividans HD002 were dosed with ritonavir at a concentration of 100 mg/L. Ritonavir was formulated with 20% hydroxypropyl-p-cyclodextrin (prepared via 1 in 25 dilution of a stock solution of 25 mg ritonavir in 1 mL DMSO). Cultures were time-coursed daily after dosing to assess the production of the target metabolite hydroxy-ritonavir as in Example 5.
(§2) Conversions of ritonavir improved with longer incubations with the drug.

[2] = tested on: P450SriC12-ferredoxinSriF05-ferredoxin reductaseSCF15A expressed in S. lividans HD002; experiment: Whole-cell biotransformation of ritonavir in 24-well block format; format: cell-based, Streptomyces rimosus NRRL-2234; conditions: for +16 Da (1.67 min) / +16 Da (1.72 min) / +16 Da (1.76 min) / Parent (1.90 min): ritonavir 100 mg/L
Experimental: as §1, §2

[3] = tested on: R63W mutant of codon optimised P450SriC12; experiment: Cell-free hydroxylase/dealkylase assay, lyophilised extract incubated with bosentan, UPLC-MS; format: biochemical, Streptomyces rimosus NRRL-2234; conditions: 0.1 mg/ml bosentan, 27° C., 16-20 hours
Experimental: (§3) Lyophilised material of recombinant P450, ferredoxin and ferredoxin reductase proteins was made as described in Example 3 and reconstituted in high purity water to 90% the original volume. Biocatalysis was performed at 27° C. in the following conditions: 50 mM potassium phosphate pH 7.4, 5 mM MgCl2, 0.1 mg/ml substrate compound such as bosentan, cyclosporine A, diclofenac, ritonavir, tivantinib, valsartan or vanoxerine, native concentration of P450, ferredoxin and ferredoxin reductase as extracted (Example 3). Reactions were initiated by addition of 10× stock of cofactor mixture (50 mM G6P, 10 mM NADP, 10 UN/ml G6PDH) to provide a final volume of e.g., 100 μL. After 16-20 hours, reactions were extracted with an equal volume of acetonitrile, centrifuged to remove precipitated proteins and conversion assessed by UPLC-MS analysis.
(§4) Acidic Analysis Conditions • Column: Acquity UPLC BEH Shield RP18 1.7 μm 2.1 mm i.d. 50 mm length • Column temperature: 45° C. • Solvents: H2O, B: Acetonitrile, both with 0.1% Formic acid • Flow rate: 1.0 ml/min • Gradient (A9%/B %): t=0 mins: 98/2 to 2/98 at t=2.4 mins and held for a further 0.4 mins (2.8 mins total), return to 98/2 over 0.05 mins and re-equilibrated for 0.15 mins (t=3 mins) at a flow-rate of 1.0 mL/min.
(§5) Basic Analysis Conditions • Column: Waters Acquity UPLC BEH C18 1.7 μm 2.1 mm i.d. 50 mm length • Column temperature: 45° C. • Solvents: A: 10 mM ammonium bicarbonate in H2O, B: Acetonitrile • Gradient (A %/B %): t=0 mins: 98/2 to 2/98 at t=2.4 mins and held for a further 0.4 mins (2.8 mins total), return to 98/2 over 0.05 mins and re-equilibrated for 0.15 mins (t=3 mins) at a flow-rate of 1.0 mL/min. • Detector: Waters Acquity UPLC PDA (UV-Vis detection) and Waters Acquity UPLC QDA (MS)
(§6) The resulting plasmids containing the new mutants genes were transformed into recombinant E. coli strains for expression as described in Example 1, cultured and induced as described in Example 2, extracted and processed as described in Example 3 and tested for biocatalytic activity as described in Example 5 above.

[4] = tested on: native codon optimised P450SriC12; experiment: as above; format: biochemical, Streptomyces rimosus NRRL-2234; conditions: 0.1 mg/ml bosentan, 27° C., 16-20 hours
Experimental: as §3, §4, §5, §6

`CC(C)c1nc(CN(C)C(=O)N[C@H](C(=O)N[C@@H](Cc2ccccc2)C[C@H](O)[C@H](Cc2ccccc2)NC(=O)OCc2cncs2)C(C)C)cs1` [ritonavir] was tested, and the “+16 Da (1.67 min)” value ([1]; sampling 24 hour) was 0.0%, the “+16 Da (1.72 min)” value ([1]; sampling 24 hour) was 0.0% and the “+16 Da (1.76 min)” value ([1]; sampling 24 hour) was 0.0%. For the same molecule, the “Parent (1.90 min)” value ([1]; sampling 24 hour) was 100.0%, the “+16 Da (1.67 min)” value ([1]; sampling 48 hour) was 0.0% and the “+16 Da (1.72 min)” value ([1]; sampling 48 hour) was 0.0%. The “+16 Da (1.76 min)” value ([1]; sampling 48 hour) was 0.0%, the “Parent (1.90 min)” value ([1]; sampling 48 hour) was 100.0% and the “+16 Da (1.67 min)” value ([1]; sampling 120 hour) was 0.0%. The “+16 Da (1.72 min)” value ([1]; sampling 120 hour) was 0.0%, the “+16 Da (1.76 min)” value ([1]; sampling 120 hour) was 0.0% and the “Parent (1.90 min)” value ([1]; sampling 120 hour) was 100.0%. The “hydroxylation of ritonavir (in words)” value ([1]; whole cells) was “unable to hydroxylate ritonavir”, the “+16 Da (1.67 min)” value ([2]; sampling 24 hour) was 7.1% and the “+16 Da (1.72 min)” value ([2]; sampling 24 hour) was 18.9%. The “+16 Da (1.76 min)” value ([2]; sampling 24 hour) was 1.4%, the “Parent (1.90 min)” value ([2]; sampling 24 hour) was 68.5% and the “+16 Da (1.67 min)” value ([2]; sampling 48 hour) was 8.6%. The “+16 Da (1.72 min)” value ([2]; sampling 48 hour) was 23.6%, the “+16 Da (1.76 min)” value ([2]; sampling 48 hour) was 2.8% and the “Parent (1.90 min)” value ([2]; sampling 48 hour) was 58.6%. For the same molecule, the “+16 Da (1.67 min)” value ([2]; sampling 120 hour) was 9.1%, the “+16 Da (1.72 min)” value ([2]; sampling 120 hour) was 28.1% and the “+16 Da (1.76 min)” value ([2]; sampling 120 hour) was 1.4%. The “Parent (1.90 min)” value ([2]; sampling 120 hour) was 51.2% and the “hydroxylation of ritonavir (in words)” value ([2]; whole-cell biotransformation) was “able to hydroxylate ritonavir”.

`COc1ccccc1Oc1c(NS(=O)(=O)c2ccc(C(C)(C)C)cc2)nc(-c2ncccn2)nc1OCCO` [bosentan] was tested, and the hydroxy-bosentan product [3] was “no hydroxy-bosentan product was detected”, the “yield of the O-demethyl-bosentan product” value [3] was 63.2% and the “yield of the O-demethyl-bosentan product” value [4] was 3.3%.
